Columns and labels:
Type in all cases: functional
A498 [1] = experiment: Cytotoxicity against human A498 cells assessed as cell growth at 10^-8 M after 24 hrs by SRB assay; conditions: A498, 24 h, read-out: Activity
[2] = Cytotoxicity against human OVCAR3 cells assessed as cell growth at 10^-5 M after 24 hrs by SRB assay; conditions: OVCAR-3, 24 h, read-out: Activity
[3] = Cytotoxicity against human BT549 cells after 24 hrs by SRB assay; conditions: BT-549, 24 h
HT-29 = experiment: Cytotoxicity against human HT-29 cells assessed as cell growth at 10^-8 M after 24 hrs by SRB assay; conditions: HT-29, 24 h, read-out: Activity
ACHN = experiment: Cytotoxicity against human ACHN cells assessed as cell growth at 10^-4 M after 24 hrs by SRB assay; conditions: read-out: Activity
[4] = Cytotoxicity against human IGROV1 cells assessed as cell growth at 10^-4 M after 24 hrs by SRB assay; conditions: IGROV-1, 24 h, read-out: Activity
[5] = Cytotoxicity against human TK10 cells assessed as cell growth at 10^-6 M after 24 hrs by SRB assay; conditions: TK-10, 24 h, read-out: Activity
[6] = Cytotoxicity against human HL-60(TB) cells assessed as cell growth at 10^-6 M after 24 hrs by SRB assay; conditions: HL-60, 24 h, read-out: Activity
[7] = Cytotoxicity against human SNB75 cells assessed as cell growth at 10^-4 M after 24 hrs by SRB assay; conditions: SNB-75, 24 h, read-out: Activity
[8] = Cytotoxicity against human HCC2998 cells assessed as cell growth at 10^-5 M after 24 hrs by SRB assay; conditions: HCC 2998, 24 h, read-out: Activity
[9] = Cytotoxicity against human SW620 cells assessed as cell growth at 10^-7 M after 24 hrs by SRB assay; conditions: SW-620, 24 h, read-out: Activity
[10] = Cytotoxicity against human SKOV3 cells assessed as cell growth at 10^-8 M after 24 hrs by SRB assay; conditions: SK-OV-3, 24 h, read-out: Activity
EKVX = experiment: Cytotoxicity against human EKVX cells assessed as cell growth at 10^-5 M after 24 hrs by SRB assay; conditions: read-out: Activity
[11] = Cytotoxicity against human IGROV1 cells assessed as cell growth at 10^-7 M after 24 hrs by SRB assay; conditions: IGROV-1, 24 h, read-out: Activity
[12] = Cytotoxicity against human RPMI8226 cells assessed as cell growth at 10^-5 M after 24 hrs by SRB assay; conditions: RPMI-8226, 24 h, read-out: Activity
[13] = Cytotoxicity against human SF295 cells assessed as cell growth at 10^-6 M after 24 hrs by SRB assay; conditions: SF-295, 24 h, read-out: Activity
[14] = Cytotoxicity against human OVCAR4 cells assessed as cell growth at 10^-4 M after 24 hrs by SRB assay; conditions: OVCAR-4, 24 h, read-out: Activity
T47D = experiment: Cytotoxicity against human T47D cells assessed as cell growth at 10^-7 M after 24 hrs by SRB assay; conditions: read-out: Activity
NCI-H226 = experiment: Cytotoxicity against human NCI-H226 cells assessed as cell growth at 10^-5 M after 24 hrs by SRB assay; conditions: NCI-H226, 24 h, read-out: Activity
KM12 = experiment: Cytotoxicity against human KM12 cells assessed as cell growth at 10^-5 M after 24 hrs by SRB assay; conditions: KM12, 24 h, read-out: Activity
[15] = Cytotoxicity against human HCT15 cells assessed as cell growth at 10^-8 M after 24 hrs by SRB assay; conditions: HCT-15, 24 h, read-out: Activity
[16] = Cytotoxicity against human DU145 cells after 24 hrs by SRB assay; conditions: DU-145, 24 h
[17] = Cytotoxicity against human OVCAR8 cells after 24 hrs by SRB assay; conditions: OVCAR-8, 24 h
SR = experiment: Cytotoxicity against human SR cells assessed as cell growth at 10^-7 M after 24 hrs by SRB assay; conditions: read-out: Activity
[18] = Cytotoxicity against human SNB19 cells assessed as cell growth at 10^-7 M after 24 hrs by SRB assay; conditions: SNB-19, 24 h, read-out: Activity
[19] = Cytotoxicity against human SNB19 cells assessed as cell growth at 10^-5 M after 24 hrs by SRB assay; conditions: SNB-19, 24 h, read-out: Activity
[20] = Cytotoxicity against human DU145 cells assessed as cell growth at 10^-7 M after 24 hrs by SRB assay; conditions: DU-145, 24 h, read-out: Activity
MCF7 = experiment: Cytotoxicity against human MCF7 cells assessed as cell growth at 10^-7 M after 24 hrs by SRB assay; conditions: MCF7, 24 h, read-out: Activity
A498 [21] = experiment: Cytotoxicity against human A498 cells assessed as cell growth at 10^-6 M after 24 hrs by SRB assay; conditions: A498, 24 h, read-out: Activity
SK-MEL-5 = experiment: Cytotoxicity against human SK-MEL-5 cells assessed as cell growth at 10^-8 M after 24 hrs by SRB assay; conditions: SK-MEL-5, 24 h, read-out: Activity
MDA-MB-435 = experiment: Cytotoxicity against human MDA-MB-435 cells assessed as cell growth at 10^-4 M after 24 hrs by SRB assay; conditions: MDA-MB-435, 24 h, read-out: Activity
[22] = Cytotoxicity against human RPMI8226 cells assessed as cell growth at 10^-7 M after 24 hrs by SRB assay; conditions: RPMI-8226, 24 h, read-out: Activity
Malme-3M = experiment: Cytotoxicity against human MALME-3M cells assessed as cell growth at 10^-7 M after 24 hrs by SRB assay; conditions: read-out: Activity
[23] = Cytotoxicity against human IGROV1 cells assessed as cell growth at 10^-6 M after 24 hrs by SRB assay; conditions: IGROV-1, 24 h, read-out: Activity
MDA-MB-231 = experiment: Cytotoxicity against human MDA-MB-231 cells assessed as cell growth at 10^-6 M after 24 hrs by SRB assay; conditions: MDA-MB-231, 24 h, read-out: Activity
[24] = Cytotoxicity against human LOXIMVI cells assessed as cell growth at 10^-5 M after 24 hrs by SRB assay; conditions: LOX IMVI, read-out: Activity
[25] = Cytotoxicity against human TK10 cells after 24 hrs by SRB assay; conditions: TK-10, 24 h
[26] = read-out: LC50 (the source's name)
[27] = read-out: pLC50 (the source's name) (converted)

With `O=C(Nc1cc(-c2cccnc2)nc(NCCCN2CCOCC2)n1)c1cc(Br)cc(C(F)(F)F)c1` as the compound, how does the growth at 0.01 µM (A498 [1]) read?
The growth at 0.01 µM was 91%.

What about the growth at 10 µM [2] of the same compound?
Its growth at 10 µM is 12%.

And the GI50 ([3]; read-out: GI50)?
Its GI50 is 3.27 µM.

What about the CC50 [3, 26] of the same compound?
Its CC50 is 45 µM.

What about the TGI ([3]; read-out: TGI) of the same compound?
Its TGI is 15 µM.

And the GI50 ([3]; read-out: pGI50 (converted))?
The GI50 was 3.24 µM.

What about the CC50 [3, 27] of the same compound?
Its CC50 is 44.7 µM.

What about the TGI ([3]; read-out: pTGI (converted)) of the same compound?
The TGI was 15.1 µM.

And the growth at 0.01 µM (HT-29)?
The growth at 0.01 µM was 100%.

What about the growth at 100 µM (ACHN) of the same compound?
Its growth at 100 µM is -79%.

And the growth at 100 µM [4]?
Its growth at 100 µM is -72%.

What about the growth at 1 µM [5] of the same compound?
The growth at 1 µM was 88%.

What about the growth at 1 µM [6] of the same compound?
Its growth at 1 µM is 88%.

What about the growth at 100 µM [7] of the same compound?
Its growth at 100 µM is -99%.

And the growth at 10 µM [8]?
The growth at 10 µM was -77%.

What about the growth at 0.1 µM [9] of the same compound?
The growth at 0.1 µM was 96%.

What about the growth at 0.01 µM [10] of the same compound?
The growth at 0.01 µM was 97%.

And the growth at 10 µM (EKVX)?
Its growth at 10 µM is 17%.

What about the growth at 0.1 µM [11] of the same compound?
Its growth at 0.1 µM is 108%.

And the growth at 10 µM [12]?
Its growth at 10 µM is -1%.

What about the growth at 1 µM [13] of the same compound?
Its growth at 1 µM is 97%.

And the growth at 100 µM [14]?
Its growth at 100 µM is -95%.

What about the growth at 0.1 µM (T47D) of the same compound?
Its growth at 0.1 µM is 91%.

And the growth at 10 µM (NCI-H226)?
The growth at 10 µM was 49%.

And the growth at 10 µM (KM12)?
The growth at 10 µM was 14%.

And the growth at 0.01 µM [15]?
Its growth at 0.01 µM is 91%.

What about the GI50 ([16]; read-out: GI50) of the same compound?
The GI50 was 6.7 µM.

And the CC50 [16, 26]?
The CC50 was 43.7 µM.

What about the TGI ([16]; read-out: TGI) of the same compound?
Its TGI is 19.1 µM.

And the GI50 ([16]; read-out: pGI50 (converted))?
The GI50 was 6.76 µM.

What about the CC50 [16, 27] of the same compound?
The CC50 was 43.7 µM.

And the TGI ([16]; read-out: pTGI (converted))?
The TGI was 19.1 µM.

And the GI50 ([17]; read-out: GI50)?
The GI50 was 2.98 µM.

And the CC50 [17, 26]?
The CC50 was 39.4 µM.

What about the TGI ([17]; read-out: TGI) of the same compound?
Its TGI is 8.59 µM.

And the GI50 ([17]; read-out: pGI50 (converted))?
Its GI50 is 2.95 µM.

And the CC50 [17, 27]?
Its CC50 is 39.8 µM.

What about the TGI ([17]; read-out: pTGI (converted)) of the same compound?
Its TGI is 8.51 µM.

What about the growth at 0.1 µM (SR) of the same compound?
Its growth at 0.1 µM is 106%.

And the growth at 0.1 µM [18]?
Its growth at 0.1 µM is 98%.

And the growth at 10 µM [19]?
The growth at 10 µM was -33%.

What about the growth at 0.1 µM [20] of the same compound?
Its growth at 0.1 µM is 105%.

And the growth at 0.1 µM (MCF7)?
The growth at 0.1 µM was 89%.

What about the growth at 1 µM (A498 [21]) of the same compound?
The growth at 1 µM was 92%.

What about the growth at 0.01 µM (SK-MEL-5) of the same compound?
The growth at 0.01 µM was 95%.

And the growth at 100 µM (MDA-MB-435)?
Its growth at 100 µM is -100%.

And the growth at 0.1 µM [22]?
The growth at 0.1 µM was 104%.

What about the growth at 0.1 µM (Malme-3M) of the same compound?
Its growth at 0.1 µM is 95%.

What about the growth at 1 µM [23] of the same compound?
The growth at 1 µM was 92%.

What about the growth at 1 µM (MDA-MB-231) of the same compound?
The growth at 1 µM was 87%.

What about the growth at 10 µM [24] of the same compound?
Its growth at 10 µM is -93%.

What about the GI50 ([25]; read-out: GI50) of the same compound?
The GI50 was 5.07 µM.

And the CC50 [25, 26]?
Its CC50 is 43.3 µM.

And the TGI ([25]; read-out: TGI)?
The TGI was 18.1 µM.

And the GI50 ([25]; read-out: pGI50 (converted))?
Its GI50 is 5.13 µM.

What about the CC50 [25, 27] of the same compound?
The CC50 was 43.7 µM.

And the TGI ([25]; read-out: pTGI (converted))?
The TGI was 18.2 µM.

Source: ChEMBL document CHEMBL3774345, “Synthesis of new diarylamides with pyrimidinyl pyridine scaffold and evaluation of their anti-proliferative effect on cancer cell lines” (Bioorg Med Chem Lett, 2016)
